This test concerns the target T1, hFAAH (Homo sapiens, UniProt O00519).
T1 construct: expressed in transfected cells; host or cells: HEK293-TRex (Invitrogen) stably transfected with hFAAH in the pcDNA5-Tet-off vector, or T84 human colon epithelial cells (endogenous hFAAH); used as a microsomal preparation
T1 sequence (O00519 1-579): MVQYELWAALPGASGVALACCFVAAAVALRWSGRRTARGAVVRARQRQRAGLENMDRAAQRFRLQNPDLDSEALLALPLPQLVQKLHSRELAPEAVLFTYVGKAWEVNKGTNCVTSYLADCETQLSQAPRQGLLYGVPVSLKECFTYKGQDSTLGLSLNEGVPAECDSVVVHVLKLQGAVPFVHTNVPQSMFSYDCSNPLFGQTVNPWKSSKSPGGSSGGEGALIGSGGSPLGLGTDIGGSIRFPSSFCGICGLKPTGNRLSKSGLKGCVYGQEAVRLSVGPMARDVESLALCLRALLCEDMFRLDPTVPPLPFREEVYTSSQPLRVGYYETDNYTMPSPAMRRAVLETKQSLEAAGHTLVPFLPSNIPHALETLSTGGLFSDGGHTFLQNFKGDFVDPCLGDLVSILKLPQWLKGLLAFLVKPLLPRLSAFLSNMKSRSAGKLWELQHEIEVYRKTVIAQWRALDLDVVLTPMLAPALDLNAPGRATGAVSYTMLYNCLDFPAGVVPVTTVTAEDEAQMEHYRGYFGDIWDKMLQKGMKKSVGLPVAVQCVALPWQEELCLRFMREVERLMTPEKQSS
The experiment in a line: Fluorimetric assay with hFAAH microsomes (enzymatic, fluorescence based). In kind it is biochemical. The conditions noted are these: compound at 1 uM, AA-AMC substrate. The procedure:
Human cell line T84 (human colon epithelial cells), which expresses endogenous hFAAH, or HEK293-TRex cells (Invitrogen) stably transfected with hFAAH in the pcDNA5-Tet-off vector are cultured in medium containing DMEM, 10% FBS penicillin/streptomycin, glutamax, 200 μg/ml hygromycin and 0.5 μg/ml blasticidin. Cell collection is done 24 h after induction with doxycycline by first washing the cells with cold PBS and then incubating them with Versene before centrifugation. Cell pellets are then stored at −80° C. until needed. For homogenization, the cell pellets are thawed on ice […] and resuspended in homogenization buffer (50 mM HEPES (pH 7.4), 1 mM EDTA, 1 μM Pepstatin A, 100 μM Leupeptin, 0.1 mg/mL aprotinin). Cell suspensions are then homogenized on ice using the Polytron 1200 C at setting 6 for three 30-second intervals with 30-second rests. The suspension is centrifuged at 1000 g for 10 minutes at 4° C. and the supernatant is collected and further centrifuged at 24000 rpm for 30 minutes at 4° C. using an ultracentrifuge. Pellets are resuspended by adding in cold microsomal buffer (50 mM HEPES (pH 7.4) and 1 mM EDTA) and sheared through a 23-gauge needle five times, keeping the suspension on ice. Protein concentrations are determined using the BCA assay and aliquoted preparations are stored at −80° C. until needed.
Compound potency against hFAAH is determined using an enzymatic assay with a fluorescence readout. Briefly, experiments were carried out in a 96-well plate format (Corning Costar, # 3370) with a total well volume of 160 μL with components added in the following order: assay buffer (50 mM HEPES (pH 7.4), 1 mM EDTA, 1.4 mg/mL BSA), compound solutions (7 different concentrations per compound in duplicate), microsomal enzyme preparation (10 μg per well) and substrate [AA-AMC (arachadonyl 7-amino 4-methyl coumarin amide), 2 μM]. After a brief shaking, a kinetic read of the plate is obtained using a Tecan Safire II in kinetic mode for 275 cycles with excitation and emission wavelengths of 355 and 460 nm, respectively. Raw data is then processed and analyzed using Assay Explorer and GraphPad Prism.
The following compounds have been or can be prepared according to the methods of the invention. An enzymatic (fluorescence based) assay is performed as described above. In Table 1, activity of each compound is expressed as follows: • ++++ % Inhibition >75% • +++ % Inhibition >50% • ++ % Inhibition >25% • + % Inhibition <25%

This passage reports inhibition results from patent publication US20110257208A1, “COMPOUNDS USEFUL AS FAAH MODULATORS AND USES THEREOF” (priority 2008, published 2011).

Turning to `Cc1nc(CN2Cc3ncnc(Nc4cnc5ccccc5c4)c3C2)cs1` [Compound 25, [6-(2-Methyl-thiazol-4-ylmethyl)-6,7-dihydro-5H-pyrrolo[3,4-d]pyrimidin-4-yl]-quinolin-3-yl-amine], the inhibition at 1 µM is < 25%.

For the compound `CCc1nc(C)c(CN2Cc3ncnc(Nc4cnc5ccccc5c4)c3C2)s1` [Compound 97, [6-(2-Ethyl-4-methyl-thiazol-5-ylmethyl)-6,7-dihydro-5H-pyrrolo[3,4-d]pyrimidin-4-yl]-quinolin-3-yl-amine], the inhibition at 1 µM is > 75%.

`c1ccc2ncc(Nc3ncnc4c3CN(C3CCCC3)C4)cc2c1` [Compound 41, (6-Cyclopentyl-6,7-dihydro-5H-pyrrolo[3,4-d]pyrimidin-4-yl)-quinolin-3-yl-amine]: the inhibition at 1 µM was > 50%.

On to `O=S(=O)(Cc1ccccc1)N1Cc2ncnc(Nc3cnc4ccccc4c3)c2C1` [Compound 63, (6-Phenylmethanesulfonyl-6,7-dihydro-5H-pyrrolo[3,4-d]pyrimidin-4-yl)-quinolin-3-yl-amine], for which the inhibition at 1 µM is < 25%.

As to `CCCN1Cc2ncnc(Nc3cnc4ccccc4c3)c2C1` [Compound 4, (6-Propyl-6,7-dihydro-5H-pyrrolo[3,4-d]pyrimidin-4-yl)-quinolin-3-yl-amine], the inhibition at 1 µM was < 25%.

On to `Cc1ccc(CN2Cc3ncnc(Nc4cnc5ccccc5c4)c3C2)c(C)c1` [Compound 93, [6-(2,4-Dimethyl-benzyl)-6,7-dihydro-5H-pyrrolo[3,4-d]pyrimidin-4-yl]-quinolin-3-yl-amine], for which the inhibition at 1 µM was > 25%.

`Cc1cnccc1CN1Cc2ncnc(Nc3cnc4ccccc4c3)c2C1` [Compound 78, [6-(3-Methyl-pyridin-4-ylmethyl)-6,7-dihydro-5H-pyrrolo[3,4-d]pyrimidin-4-yl]-quinolin-3-yl-amine]: the inhibition at 1 µM was > 75%.

Regarding `Cc1occc1CN1Cc2ncnc(Nc3cnc4ccccc4c3)c2C1` [Compound 96, [6-(2-Methyl-furan-3-ylmethyl)-6,7-dihydro-5H-pyrrolo[3,4-d]pyrimidin-4-yl]-quinolin-3-yl-amine], the inhibition at 1 µM is > 50%.

For `Cc1cccnc1CN1Cc2ncnc(Nc3cnc4ccccc4c3)c2C1` [Compound 79, [6-(3-Methyl-pyridin-2-ylmethyl)-6,7-dihydro-5H-pyrrolo[3,4-d]pyrimidin-4-yl]-quinolin-3-yl-amine], the inhibition at 1 µM was < 25%.

As to `c1cc2c(c(CN3Cc4ncnc(Nc5cnc6ccccc6c5)c4C3)c1)OCC2` [Compound 101, [6-(2,3-Dihydro-benzofuran-7-ylmethyl)-6,7-dihydro-5H-pyrrolo[3,4-d]pyrimidin-4-yl]-quinolin-3-yl-amine], the inhibition at 1 µM is > 75%.

Consider `FC(F)Oc1ccccc1CN1Cc2ncnc(Nc3cnc4ccccc4c3)c2C1` [Compound 105, [6-(2-Difluoromethoxy-benzyl)-6,7-dihydro-5H-pyrrolo[3,4-d]pyrimidin-4-yl]-quinolin-3-yl-amine], for which the inhibition at 1 µM was > 75%.

For the compound `CC(C)(C)OC(=O)N1Cc2ncnc(Nc3cnc4ccccc4c3)c2C1` [Compound 45, 4-(Quinolin-3-ylamino)-5,7-dihydro-pyrrolo[3,4-d]pyrimidine-6-carboxylic acid tert-butyl ester], the inhibition at 1 µM is > 50%.

Take `c1ccc2ncc(Nc3ncnc4c3CN(Cc3ccnc5ccccc35)C4)cc2c1` [Compound 85, Quinolin-3-yl-(6-quinolin-4-ylmethyl-6,7-dihydro-5H-pyrrolo[3,4-d]pyrimidin-4-yl)-amine]: the inhibition at 1 µM is > 50%.

For the compound `Cc1nc(C(F)(F)F)ccc1CN1Cc2ncnc(Nc3cnc4ccccc4c3)c2C1` [Compound 74, [6-(2-Methyl-6-trifluoromethyl-pyridin-3-ylmethyl)-6,7-dihydro-5H-pyrrolo[3,4-d]pyrimidin-4-yl]-quinolin-3-yl-amine], the inhibition at 1 µM is > 25%.

With `O=S(=O)(c1ccccc1Cl)N1Cc2ncnc(Nc3cnc4ccccc4c3)c2C1` [Compound 72, [6-(2-Chloro-benzenesulfonyl)-6,7-dihydro-5H-pyrrolo[3,4-d]pyrimidin-4-yl]-quinolin-3-yl-amine], the inhibition at 1 µM is > 50%.
